Source: article PMC4776319 (Water research, 2015)
Where two headings read alike, the source gives them in different places.

Key:
[1] = tested on: neuroblastoma cells (SK-N-SH)
[2] = target: T1, glucocorticoid receptor (GR) (Homo sapiens, UniProt P04150); assay: GR-Switchgear; format: cell-based; conditions: reference chemical
T1 sequence (P04150 1-777): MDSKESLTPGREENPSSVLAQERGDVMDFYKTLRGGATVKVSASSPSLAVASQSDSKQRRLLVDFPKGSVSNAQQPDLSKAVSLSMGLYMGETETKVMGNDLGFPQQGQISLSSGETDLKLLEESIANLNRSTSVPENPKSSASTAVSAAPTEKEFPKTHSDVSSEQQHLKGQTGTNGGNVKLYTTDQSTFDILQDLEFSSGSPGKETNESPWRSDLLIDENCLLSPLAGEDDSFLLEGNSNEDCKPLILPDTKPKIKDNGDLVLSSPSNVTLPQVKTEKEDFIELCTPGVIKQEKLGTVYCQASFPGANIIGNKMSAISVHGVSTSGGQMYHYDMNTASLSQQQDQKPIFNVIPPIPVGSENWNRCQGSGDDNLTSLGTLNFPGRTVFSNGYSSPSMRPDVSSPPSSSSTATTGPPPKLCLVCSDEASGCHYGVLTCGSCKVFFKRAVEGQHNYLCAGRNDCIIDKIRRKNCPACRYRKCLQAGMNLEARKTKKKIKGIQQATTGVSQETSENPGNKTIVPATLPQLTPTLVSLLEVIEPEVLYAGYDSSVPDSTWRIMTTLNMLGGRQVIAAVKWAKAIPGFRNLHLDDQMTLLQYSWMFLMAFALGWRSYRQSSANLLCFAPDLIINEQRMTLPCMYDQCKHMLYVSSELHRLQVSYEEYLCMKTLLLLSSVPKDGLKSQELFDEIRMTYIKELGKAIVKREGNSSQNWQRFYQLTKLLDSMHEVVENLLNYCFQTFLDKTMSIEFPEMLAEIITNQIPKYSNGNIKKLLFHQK

[3] = tested on: monocyte cell line (THP1); conditions: read-out: EC50 value in literature; ref Leusch et al., 2014; cited from earlier work
[4] = tested on: monocyte cell line (THP1); assay: THP1-cp cytokine production
algae photosynthesis [5] = assay: I-PAM algae photosynthesis inhibition; format: cell-based
algae growth [6] = assay: Algae growth inhibition; format: cell-based
algae photosynthesis [7] = conditions: read-out: EC50 value in literature, cited from earlier work
algae growth [8] = conditions: read-out: EC50 value in literature; ref Escher et al., 2008a; cited from earlier work
[9] = target: T2, peroxisome proliferator-activated receptor (PPARγ) (Homo sapiens, UniProt P37231); assay: PPARγ-GeneBLAzer-Anta; format: cell-based; conditions: antagonist mode
T2 sequence (P37231 238-505 limits assumed): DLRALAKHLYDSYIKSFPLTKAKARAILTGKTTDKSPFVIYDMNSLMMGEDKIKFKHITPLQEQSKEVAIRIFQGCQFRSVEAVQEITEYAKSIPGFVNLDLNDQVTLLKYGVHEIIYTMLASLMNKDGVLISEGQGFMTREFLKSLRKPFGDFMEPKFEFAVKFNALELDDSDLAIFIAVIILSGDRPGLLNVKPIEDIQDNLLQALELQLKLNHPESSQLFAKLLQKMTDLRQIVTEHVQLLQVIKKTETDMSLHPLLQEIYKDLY

[10] = target: T2, peroxisome proliferator-activated receptor (PPARγ); conditions: read-out: EC50 value in literature; antagonist mode; ref Invitrogen, 2007b; cited from earlier work
[11] = target: T3, progesterone receptor (PR) (Homo sapiens, UniProt P06401); assay: PR-CALUX progestagenic effects; format: cell-based; conditions: reference chemical
T3 sequence (P06401 1-933): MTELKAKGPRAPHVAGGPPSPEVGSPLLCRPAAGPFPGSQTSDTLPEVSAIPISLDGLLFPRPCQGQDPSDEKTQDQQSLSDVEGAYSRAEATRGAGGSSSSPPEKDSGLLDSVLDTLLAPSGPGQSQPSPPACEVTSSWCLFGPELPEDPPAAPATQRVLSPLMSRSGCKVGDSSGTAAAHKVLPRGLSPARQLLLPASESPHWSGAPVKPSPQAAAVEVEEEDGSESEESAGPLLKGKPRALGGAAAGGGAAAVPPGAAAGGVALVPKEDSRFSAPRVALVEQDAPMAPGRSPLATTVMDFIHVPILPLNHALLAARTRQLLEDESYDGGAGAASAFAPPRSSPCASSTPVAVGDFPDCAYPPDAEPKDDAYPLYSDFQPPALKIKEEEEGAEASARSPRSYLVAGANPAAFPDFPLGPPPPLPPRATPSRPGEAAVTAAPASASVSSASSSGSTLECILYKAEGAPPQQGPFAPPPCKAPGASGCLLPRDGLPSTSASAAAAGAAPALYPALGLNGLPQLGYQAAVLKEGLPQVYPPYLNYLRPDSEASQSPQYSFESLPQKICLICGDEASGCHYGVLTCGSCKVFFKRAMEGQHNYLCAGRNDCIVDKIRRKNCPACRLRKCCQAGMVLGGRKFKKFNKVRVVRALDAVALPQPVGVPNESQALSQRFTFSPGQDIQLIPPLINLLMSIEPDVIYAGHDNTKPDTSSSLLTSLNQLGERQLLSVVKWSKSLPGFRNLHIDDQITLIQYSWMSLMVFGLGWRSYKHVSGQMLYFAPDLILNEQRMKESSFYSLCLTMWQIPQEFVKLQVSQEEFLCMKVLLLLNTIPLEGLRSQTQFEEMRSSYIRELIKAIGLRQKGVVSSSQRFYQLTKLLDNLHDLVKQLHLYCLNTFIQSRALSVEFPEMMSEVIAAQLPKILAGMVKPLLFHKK

Caco-2 cells = assay: Caco-2 NRU cytotoxicity; format: cell-based, human; conditions: carrier solvent as positive control
[12] = target: T3, progesterone receptor (PR); assay: PR-CALUX-Anta; format: cell-based; conditions: antagonist mode, 20% suppression
Jurkat cell line = assay: Jurkat E6-1 osmotic stress assay; format: cell-based; conditions: reference chemical
[13] = tested on: arylhydrocarbon receptor (AhR); assay: AhR CAFLUX; format: cell-based; conditions: reference chemical
[14] = tested on: arylhydrocarbon receptor (AhR); conditions: read-out: EC50 value in literature; ref Macova et al., 2010; cited from earlier work
[15] = tested on: thyroid activity (cell proliferation); assay: T-SCREEN cell proliferation assay, thyroid effects; format: cell-based
[16] = tested on: thyroid activity (cell proliferation); conditions: read-out: EC50 value in literature; ref Gutleb et al., 2005; cited from earlier work
Nrf2-MDA-MB cells [17] = assay: cells; format: cell-based, human
Nrf2-Keap-ARE32 pathway = conditions: read-out: EC50 value in literature; ref Escher et al., 2012; cited from earlier work
Nrf2-MDA-MB cells [18] = conditions: read-out: EC50 value in literature; ref Escher et al., 2012; cited from earlier work

Question: For C[S+](C)[O-] [DMSO, Dimethylsulfoxide], which EC10 [1] is on record?
Answer: The EC10 was 0.11 M.

Question: For C[C@@H]1C[C@H]2[C@@H]3CCC4=CC(=O)C=C[C@]4(C)[C@@]3(F)[C@@H](O)C[C@]2(C)[C@@]1(O)C(=O)CO [Dexamethasone], which EC10 [2] is on record?
Answer: Its EC10 is “EC10 (0.5 nM); EC50 (2.6 nM)”.

Question: What about the EC50 [3] of the same compound?
Answer: Its EC50 is 2.7 nM.

Question: And the EC50 ([4]; Homo sapiens, THP-1)?
Answer: Its EC50 is 45 nM.

Question: What about the EC10 ([4]; reference chemical) of the same compound?
Answer: The EC10 was 2.1 nM.

Question: With CN(C)C(=O)Nc1ccc(Cl)c(Cl)c1 [Diuron] as the compound, how does the EC50 (algae photosynthesis [5]) read?
Answer: The EC50 was 6 nM.

Question: What about the EC50 (algae growth [6]) of the same compound?
Answer: Its EC50 is 25 nM.

Question: What about the EC50 (algae photosynthesis [7]; ref Escher et al., 2008a) of the same compound?
Answer: The EC50 was 12.8 nM.

Question: And the EC50 (algae photosynthesis [7]; ref Macova et al., 2010)?
Answer: The EC50 was 68.6 nM.

Question: What about the EC50 (algae growth [8]) of the same compound?
Answer: The EC50 was 135 nM.

Question: What does the source list for O=C(Nc1ccccc1)c1cc([N+](=O)[O-])ccc1Cl [GW9662]?
Answer: ECSR0.2 ([9]; 20% suppression): 3.0 nM; IC50 ([9]; read-out: ECSR0.5, 50% suppression): 8.4 nM; EC50 [10]: 3.5 nM

Question: For C#C[C@]1(O)CC[C@H]2[C@@H]3CCC4=CC(=O)CC[C@@H]4[C@H]3CC[C@@]21CC [Levonorgestrel], which EC10 [11] is on record?
Answer: The EC10 was 0.3 nM.

Question: With CO [Methanol] as the compound, how does the EC10 (Caco-2 cells) read?
Answer: Its EC10 is 0.4 M.

Question: For CC#C[C@]1(O)CC[C@H]2[C@@H]3CCC4=CC(=O)CCC4=C3[C@@H](c3ccc(N(C)C)cc3)C[C@@]21C [Mifepristone], which ECSR0.2 [12] is on record?
Answer: Its ECSR0.2 is 20 pM.

Question: With CCCCCCCCCCCCCC(=O)O[C@@H]1[C@@H](C)[C@@]2(O)[C@@H](C=C(CO)C[C@]3(O)C(=O)C(C)=C[C@@H]23)[C@@H]2C(C)(C)[C@]12OC(C)=O [PMA, Phorbol-12-myristate-13-acetate] as the compound, how does the EC10 (Jurkat cell line) read?
Answer: Its EC10 is 3 nM.

Question: And the EC50 (Jurkat cell line)?
Answer: The EC50 was 20 nM.

Question: With Clc1cc2c(cc1Cl)Oc1cc(Cl)c(Cl)cc1O2 [TCDD, 2,3,7,8-TCDD] as the compound, how does the EC10 [13] read?
Answer: The EC10 was 0.00065 nM.

Question: And the EC50 [13]?
Answer: Its EC50 is 0.008 nM.

Question: And the EC50 [14]?
Answer: The EC50 was 0.0248 nM.

Question: With N[C@@H](Cc1cc(I)c(Oc2ccc(O)c(I)c2)c(I)c1)C(=O)O [Triiodothyronine] as the compound, how does the EC50 [15] read?
Answer: The EC50 was 0.74 nM.

Question: What about the EC10 ([15]; reference chemical) of the same compound?
Answer: The EC10 was 0.28 nM.

Question: What about the EC50 [16] of the same compound?
Answer: The EC50 was 0.191 nM.

Question: With CC(C)(C)c1cc(O)ccc1O [tBHQ, tert-Butylhydroquinone] as the compound, how does the EC50 (Nrf2-MDA-MB cells [17]; Homo sapiens) read?
Answer: The EC50 was 178000 nM.

Question: What about the EC10 (Nrf2-MDA-MB cells [17]; human) of the same compound?
Answer: Its EC10 is 103000 nM.

Question: What about the EC50 (Nrf2-Keap-ARE32 pathway) of the same compound?
Answer: The EC50 was 1320 nM.

Question: And the EC50 (Nrf2-MDA-MB cells [18])?
Answer: Its EC50 is 46000 nM.
